Test results from PMC5218480 (PLoS ONE, 2017).

Tested on: MV-4-11 cells
Test: Gene expression microarray analysis (Affymetrix PrimeView) and GSEA
Type: cell-based, human
Design: RFU PODN (11730768_x_at) / Fold change /veh PODN (11730768_x_at) / RFU LINC00158 (11744669_a_at) / Fold change /veh LINC00158 (11744669_a_at) / RFU DUSP10 (11751237_a_at) / Fold change /veh DUSP10 (11751237_a_at) / RFU ID3 (11757404_x_at) / Fold change /veh ID3 (11757404_x_at) / RFU PLEKHG5 (11737974_s_at) / Fold change /veh PLEKHG5 (11737974_s_at) / RFU LRRC4B (11730491_at) / Fold change /veh LRRC4B (11730491_at) / RFU GIMAP4 (11747438_a_at) / Fold change /veh GIMAP4 (11747438_a_at) / RFU KRT8 (11758183_x_at) / Fold change /veh KRT8 (11758183_x_at) / RFU CNN1 (11734310_a_at) / Fold change /veh CNN1 (11734310_a_at) / RFU VPS37D (11726825_at) / Fold change /veh VPS37D (11726825_at) / RFU C10orf10 (11716522_x_at) / Fold change /veh C10orf10 (11716522_x_at) / RFU KIR2DL2 /// KIR2DL4 /// KIR2DL5A /// KIR2DL5B /// KIR2DS1 /// KIR2DS2 /// KIR2DS3 /// KIR2DS4 /// KIR3DL3 /// KIR3DL3 /// KIR3DS1 (11738374_at) / Fold change /veh KIR2DL2 /// KIR2DL4 /// KIR2DL5A /// KIR2DL5B /// KIR2DS1 /// KIR2DS2 /// KIR2DS3 /// KIR2DS4 /// KIR3DL3 /// KIR3DL3 /// KIR3DS1 (11738374_at) / RFU C1QL1 (11718748_at) / Fold change /veh C1QL1 (11718748_at) / RFU TMPRSS4 (11747572_a_at) / Fold change /veh TMPRSS4 (11747572_a_at) / RFU HAMP (11756126_x_at) / Fold change /veh HAMP (11756126_x_at) / RFU RNFT2 (11725882_a_at) / Fold change /veh RNFT2 (11725882_a_at) / RFU NR4A2 (11747474_a_at) / Fold change /veh NR4A2 (11747474_a_at) / RFU ABCC12 (11746883_a_at) / Fold change /veh ABCC12 (11746883_a_at) / RFU TMEM136 (11760407_x_at) / Fold change /veh TMEM136 (11760407_x_at) / RFU CLDN22 /// WWC2 (11732394_at) / Fold change /veh CLDN22 /// WWC2 (11732394_at) / RFU HLA-DPB1 (11760878_x_at) / Fold change /veh HLA-DPB1 (11760878_x_at) / RFU SPINT1 (11716480_a_at) / Fold change /veh SPINT1 (11716480_a_at) / RFU GAP43 (11754022_s_at) / Fold change /veh GAP43 (11754022_s_at) / RFU A4GNT (11735810_at) / Fold change /veh A4GNT (11735810_at) / RFU PRB3 (11715151_x_at) / Fold change /veh PRB3 (11715151_x_at) / RFU TUBB4B (11761932_at) / Fold change /veh TUBB4B (11761932_at) / RFU CAPN14 (11732068_a_at) / Fold change /veh CAPN14 (11732068_a_at) / RFU TMCC2 (11721928_a_at) / Fold change /veh TMCC2 (11721928_a_at) / RFU IRGQ (11745062_a_at) / Fold change /veh IRGQ (11745062_a_at) / RFU FAM174B (11720279_a_at) / Fold change /veh FAM174B (11720279_a_at) / RFU TMPRSS4 (11748680_a_at) / Fold change /veh TMPRSS4 (11748680_a_at) / RFU FAM212B (11763350_a_at) / Fold change /veh FAM212B (11763350_a_at) / RFU PLEKHG5 (11743358_a_at) / Fold change /veh PLEKHG5 (11743358_a_at) / RFU ZSCAN30 (11745921_a_at) / Fold change /veh ZSCAN30 (11745921_a_at) / RFU CMKLR1 (11741424_a_at) / Fold change /veh CMKLR1 (11741424_a_at) / RFU LOC101060620 /// MAPK8IP1 (11723275_at) / Fold change /veh LOC101060620 /// MAPK8IP1 (11723275_at) / RFU SPTSSB (11747773_x_at) / Fold change /veh SPTSSB (11747773_x_at) / RFU PRSS12 (11739890_at) / Fold change /veh PRSS12 (11739890_at) / RFU BIN1 (11741810_x_at) / Fold change /veh BIN1 (11741810_x_at) / RFU WNT11 (11732464_a_at) / Fold change /veh WNT11 (11732464_a_at) / RFU C10orf10 (11716521_a_at) / Fold change /veh C10orf10 (11716521_a_at) / RFU C5orf56 (11738089_at) / Fold change /veh C5orf56 (11738089_at) / RFU CYB561 (11721691_x_at) / Fold change /veh CYB561 (11721691_x_at) / RFU ANKRD19P (11752326_a_at) / Fold change /veh ANKRD19P (11752326_a_at) / RFU OR2T12 /// OR2T33 /// OR2T8 (11738714_s_at) / Fold change /veh OR2T12 /// OR2T33 /// OR2T8 (11738714_s_at) / RFU VCAN (11748164_a_at) / Fold change /veh VCAN (11748164_a_at) / RFU JSRP1 (11732532_at) / Fold change /veh JSRP1 (11732532_at) / RFU KRTAP10-11 (11738290_x_at) / Fold change /veh KRTAP10-11 (11738290_x_at) / RFU MYO3A (11730013_a_at) / Fold change /veh MYO3A (11730013_a_at) / RFU EBF3 (11725865_a_at) / Fold change /veh EBF3 (11725865_a_at) / RFU CAMK2N1 (11719241_x_at) / Fold change /veh CAMK2N1 (11719241_x_at) / RFU C5orf56 (11738088_a_at) / Fold change /veh C5orf56 (11738088_a_at) / RFU OLFML3 (11715873_a_at) / Fold change /veh OLFML3 (11715873_a_at) / RFU LOC100653217 /// NTM (11731650_a_at) / Fold change /veh LOC100653217 /// NTM (11731650_a_at) / RFU MAPK11 (11762145_a_at) / Fold change /veh MAPK11 (11762145_a_at) / RFU FIZ1 (11724087_x_at) / Fold change /veh FIZ1 (11724087_x_at) / RFU OASL (11726364_x_at) / Fold change /veh OASL (11726364_x_at) / RFU SOX15 (11748057_x_at) / Fold change /veh SOX15 (11748057_x_at) / RFU CD79A (11719716_a_at) / Fold change /veh CD79A (11719716_a_at) / RFU HIST1H1D (11736915_at) / Fold change /veh HIST1H1D (11736915_at) / RFU CASKIN2 (11723855_a_at) / Fold change /veh CASKIN2 (11723855_a_at) / RFU LOC730098 (11760151_x_at) / Fold change /veh LOC730098 (11760151_x_at) / RFU OR4N2 (11742367_at) / Fold change /veh OR4N2 (11742367_at) / RFU PRRT2 (11749266_a_at) / Fold change /veh PRRT2 (11749266_a_at) / RFU SNX32 (11753110_a_at) / Fold change /veh SNX32 (11753110_a_at) / RFU CDHR5 (11726645_a_at) / Fold change /veh CDHR5 (11726645_a_at) / RFU RCAN1 (11760418_a_at) / Fold change /veh RCAN1 (11760418_a_at) / RFU FAM167A (11723789_a_at) / Fold change /veh FAM167A (11723789_a_at) / RFU FAM26E (11764081_at) / Fold change /veh FAM26E (11764081_at) / RFU ISYNA1 (11749810_s_at) / Fold change /veh ISYNA1 (11749810_s_at) / RFU ACY1 (11761880_at) / Fold change /veh ACY1 (11761880_at) / RFU 11764098_at / Fold change /veh 11764098_at / RFU SAMD14 (11745864_x_at) / Fold change /veh SAMD14 (11745864_x_at) / RFU NPB (11741838_a_at) / Fold change /veh NPB (11741838_a_at) / RFU TMPRSS6 (11731388_a_at) / Fold change /veh TMPRSS6 (11731388_a_at) / RFU KRTAP10-2 (11738614_at) / Fold change /veh KRTAP10-2 (11738614_at) / RFU ARHGAP8 /// PRR5-ARHGAP8 (11727945_x_at) / Fold change /veh ARHGAP8 /// PRR5-ARHGAP8 (11727945_x_at) / RFU KRTAP5-7 /// NADSYN1 (11734609_at) / Fold change /veh KRTAP5-7 /// NADSYN1 (11734609_at) / RFU RASL12 (11751679_a_at) / Fold change /veh RASL12 (11751679_a_at) / RFU CDKN2B (11736163_a_at) / Fold change /veh CDKN2B (11736163_a_at) / RFU PRF1 (11729649_at) / Fold change /veh PRF1 (11729649_at) / RFU, ZNF638 /// ZNF638-IT1 / Fold change vs veh, ZNF638 /// ZNF638-IT1 / RFU, PANK3 / Fold change vs veh, PANK3 / RFU, SH3YL1 / Fold change vs veh, SH3YL1 / RFU, ZEB2 / Fold change vs veh, ZEB2 / RFU, NRIP1 / Fold change vs veh, NRIP1 / RFU, PTTG1IP / Fold change vs veh, PTTG1IP / RFU, CAPN2 / Fold change vs veh, CAPN2 / RFU, MED14 / Fold change vs veh, MED14 / RFU, SNORA58 / Fold change vs veh, SNORA58 / RFU, C1orf63 / Fold change vs veh, C1orf63 / RFU, LRRFIP1 / Fold change vs veh, LRRFIP1 / RFU, NDUFAF7 / Fold change vs veh, NDUFAF7 / RFU, SLC12A2 / Fold change vs veh, SLC12A2 / RFU, IBTK / Fold change vs veh, IBTK / RFU, ESF1 / Fold change vs veh, ESF1 / Fold change vs veh, TMEM50B / RFU, TAOK1 / Fold change vs veh, TAOK1 / RFU, ACBD3 / Fold change vs veh, ACBD3 / RFU, TMA16 / Fold change vs veh, TMA16 / RFU, RWDD3 / Fold change vs veh, RWDD3 / RFU, BCAT1 / Fold change vs veh, BCAT1 / RFU, EDEM3 / Fold change vs veh, EDEM3 / RFU, TMEM33 / Fold change vs veh, TMEM33 / RFU, WDR75 / Fold change vs veh, WDR75 / RFU, AHCTF1 / Fold change vs veh, AHCTF1 / RFU, TFRC / Fold change vs veh, TFRC / RFU, ZDHHC17 / Fold change vs veh, ZDHHC17 / RFU, NOM1 / Fold change vs veh, NOM1 / RFU, ARL8B / Fold change vs veh, ARL8B / RFU, ZBTB11 / Fold change vs veh, ZBTB11 / RFU, TAMM41 / Fold change vs veh, TAMM41 / RFU, KIAA1704 /// LOC100996395 / Fold change vs veh, KIAA1704 /// LOC100996395 / RFU, ING1 / Fold change vs veh, ING1 / RFU, TRMT61B / Fold change vs veh, TRMT61B / RFU, FUBP3 / Fold change vs veh, FUBP3 / RFU, TP53 / Fold change vs veh, TP53 / RFU, TNKS2 / Fold change vs veh, TNKS2 / RFU, ZFP14 / Fold change vs veh, ZFP14 / RFU, ACTR2 / Fold change vs veh, ACTR2 / RFU, PPP3R1 / Fold change vs veh, PPP3R1 / RFU, PIK3R1 / Fold change vs veh, PIK3R1 / RFU, HNRNPA1 / Fold change vs veh, HNRNPA1 / RFU, RNF170 / Fold change vs veh, RNF170 / RFU, ZNF28 / Fold change vs veh, ZNF28 / RFU, RNGTT / Fold change vs veh, RNGTT / RFU, OGT / Fold change vs veh, OGT / RFU, BRD1 / Fold change vs veh, BRD1 / RFU, MARS / Fold change vs veh, MARS / RFU, ZNF655 / Fold change vs veh, ZNF655 / RFU, FAHD1 / Fold change vs veh, FAHD1 / RFU, BDP1 / Fold change vs veh, BDP1 / RFU, LRRCC1 / Fold change vs veh, LRRCC1 / RFU, ARID1A / Fold change vs veh, ARID1A / RFU, ZNF146 / Fold change vs veh, ZNF146 / RFU, ZNF330 / Fold change vs veh, ZNF330 / RFU, GPN3 / Fold change vs veh, GPN3 / RFU, C9orf123 / Fold change vs veh, C9orf123 / RFU, N4BP2L2 / Fold change vs veh, N4BP2L2 / RFU, ARFIP1 / Fold change vs veh, ARFIP1 / RFU, FAM179B / Fold change vs veh, FAM179B / RFU, BCL10 / Fold change vs veh, BCL10 / RFU, UHRF1BP1L / Fold change vs veh, UHRF1BP1L / RFU, BET1 / Fold change vs veh, BET1 / RFU, CNOT2 / Fold change vs veh, CNOT2 / RFU, ZNF268 / Fold change vs veh, ZNF268 / Fold change vs veh, ZNF507 / RFU, DGCR2 / Fold change vs veh, DGCR2 / RFU, WDSUB1 / Fold change vs veh, WDSUB1 / Fold change vs veh, HSP90B1 /// MIR3652 / RFU, ADSS / Fold change vs veh, ADSS / RFU, GK / Fold change vs veh, GK / RFU, ZNF148 / Fold change vs veh, ZNF148 / RFU, TAF9 / Fold change vs veh, TAF9 / RFU, SLC1A5 / Fold change vs veh, SLC1A5 / RFU, SLMO2 / Fold change vs veh, SLMO2 / RFU, ABCC4 / Fold change vs veh, ABCC4 / RFU, LOC101060439 /// RAP1B / Fold change vs veh, LOC101060439 /// RAP1B / RFU, RFX7 / Fold change vs veh, RFX7 / RFU, GTPBP10 / Fold change vs veh, GTPBP10 / RFU, CNEP1R1 / Fold change vs veh, CNEP1R1 / RFU, BIVM-ERCC5 /// ERCC5 / Fold change vs veh, BIVM-ERCC5 /// ERCC5 / RFU, ILF3 / Fold change vs veh, ILF3 / RFU 11762660_at / Fold change /veh 11762660_at / RFU VCAN (11757783_s_at) / Fold change /veh VCAN (11757783_s_at) / RFU DDX43 (11728927_at) / Fold change /veh DDX43 (11728927_at) / RFU KRT8 (11758188_x_at) / Fold change /veh KRT8 (11758188_x_at) / RFU NKD1 (11759106_at) / Fold change /veh NKD1 (11759106_at) / RFU SRD5A1 (11742802_a_at) / Fold change /veh SRD5A1 (11742802_a_at) / RFU TPSAB1 /// TPSB2 (11721975_s_at) / Fold change /veh TPSAB1 /// TPSB2 (11721975_s_at) / RFU GSTM3 (11746129_a_at) / Fold change /veh GSTM3 (11746129_a_at) / RFU IL23R (11737362_x_at) / Fold change /veh IL23R (11737362_x_at) / RFU TMEM51 (11727254_a_at) / Fold change /veh TMEM51 (11727254_a_at) / RFU PIWIL2 (11732686_x_at) / Fold change /veh PIWIL2 (11732686_x_at) / RFU ORM1 (11744905_x_at) / Fold change /veh ORM1 (11744905_x_at) / RFU CCDC152 (11743942_at) / Fold change /veh CCDC152 (11743942_at) / RFU ECM1 (11717891_a_at) / Fold change /veh ECM1 (11717891_a_at) / RFU IL23R (11748794_a_at) / Fold change /veh IL23R (11748794_a_at) / RFU TNFAIP8L3 (11732012_x_at) / Fold change /veh TNFAIP8L3 (11732012_x_at) / RFU MBOAT4 (11741988_at) / Fold change /veh MBOAT4 (11741988_at) / RFU 11764193_at / Fold change /veh 11764193_at / RFU TMEM53 (11763286_at) / Fold change /veh TMEM53 (11763286_at) / RFU MAGEB2 (11727129_at) / Fold change /veh MAGEB2 (11727129_at) / RFU TMEM200A (11744735_a_at) / Fold change /veh TMEM200A (11744735_a_at) / RFU CCDC152 (11751479_a_at) / Fold change /veh CCDC152 (11751479_a_at) / RFU FAM211A (11726209_a_at) / Fold change /veh FAM211A (11726209_a_at) / RFU RGS16 (11746705_a_at) / Fold change /veh RGS16 (11746705_a_at) / RFU VCAN (11755009_s_at) / Fold change /veh VCAN (11755009_s_at) / RFU RHOB (11743442_s_at) / Fold change /veh RHOB (11743442_s_at) / RFU RGS16 (11720943_a_at) / Fold change /veh RGS16 (11720943_a_at) / RFU RGS16 (11720944_at) / Fold change /veh RGS16 (11720944_at) / RFU, VPS4B / Fold change vs veh, VPS4B / RFU, CREB1 / Fold change vs veh, CREB1 / RFU, DNAJC13 / Fold change vs veh, DNAJC13 / RFU, GNAQ / Fold change vs veh, GNAQ / RFU, CDK5R1 / Fold change vs veh, CDK5R1 / RFU, ZRANB3 / Fold change vs veh, ZRANB3 / RFU, CUL4A / Fold change vs veh, CUL4A / RFU, CCNY / Fold change vs veh, CCNY / RFU, UFL1 / Fold change vs veh, UFL1 / RFU, COG3 / Fold change vs veh, COG3 / RFU, DIAPH2 / Fold change vs veh, DIAPH2 / RFU, SKA2 / Fold change vs veh, SKA2 / RFU, AFF3 / Fold change vs veh, AFF3 / RFU, LMF1 / Fold change vs veh, LMF1 / RFU, IPO11 / Fold change vs veh, IPO11 / RFU, DFFB / Fold change vs veh, DFFB / RFU, FOXP1 / Fold change vs veh, FOXP1 / RFU, CARD8 / Fold change vs veh, CARD8 / RFU, STRN3 / Fold change vs veh, STRN3 / RFU, ADK / Fold change vs veh, ADK / RFU, RASSF2 / Fold change vs veh, RASSF2 / RFU, WIPF1 / Fold change vs veh, WIPF1 / RFU, LARP1B / Fold change vs veh, LARP1B / RFU, RASA1 / Fold change vs veh, RASA1 / RFU, RB1 / Fold change vs veh, RB1 / RFU, PPFIA1 / Fold change vs veh, PPFIA1 / RFU, MAT2A / Fold change vs veh, MAT2A / RFU, CCT5 / Fold change vs veh, CCT5 / RFU, WDR92 / Fold change vs veh, WDR92 / RFU, CUX1 / Fold change vs veh, CUX1 / RFU, TTC7A / Fold change vs veh, TTC7A / RFU, TMEM135 / Fold change vs veh, TMEM135 / RFU, DEPTOR / Fold change vs veh, DEPTOR / RFU, CPM / Fold change vs veh, CPM / RFU, DNAJB6 / Fold change vs veh, DNAJB6 / RFU, CACNA2D3 / Fold change vs veh, CACNA2D3 / RFU, DTX4 / Fold change vs veh, DTX4 / RFU, TFCP2 / Fold change vs veh, TFCP2 / RFU, GMCL1 /// GMCL1P1 / Fold change vs veh, GMCL1 /// GMCL1P1 / RFU, AEBP2 / Fold change vs veh, AEBP2 / RFU, SNHG1 /// SNORD22 /// SNORD25 /// SNORD26 /// SNORD27 /// SNORD28 /// SNORD29 /// SNORD31 / Fold change vs veh, SNHG1 /// SNORD22 /// SNORD25 /// SNORD26 /// SNORD27 /// SNORD28 /// SNORD29 /// SNORD31 / Fold change (Aza/veh), C12orf56 (ProbeSet 11735607_a_at) / Fold change (ACY-1035/veh), C12orf56 (ProbeSet 11735607_a_at) / Fold change (Aza/veh), FGFR1OP (ProbeSet 11751329_s_at) / Fold change (ACY-1035/veh), FGFR1OP (ProbeSet 11751329_s_at) / Fold change (Aza/veh), VPS36 (ProbeSet 11739960_a_at) / Fold change (ACY-1035/veh), VPS36 (ProbeSet 11739960_a_at) / RFU SYPL1 (11715823_x_at) / Fold change /veh SYPL1 (11715823_x_at) / RFU IGFBP7 (11715501_s_at) / Fold change /veh IGFBP7 (11715501_s_at) / RFU REEP3 (11722064_at) / Fold change /veh REEP3 (11722064_at) / RFU IGLL1 (11728026_x_at) / Fold change /veh IGLL1 (11728026_x_at): dose or concentration left out as unconfirmed
Conditions: MV-4-11 cells, 48 hours

Nc1ncn([C@@H]2O[C@H](CO)[C@@H](O)[C@H]2O)c(=O)n1 [azacitidine]
RFU HIST1H1D (11736915_at): 16.89 RFU
